Measurements from patent publication US20080255084A1, “Combination of Organic Compounds” (priority 2005, published 2008).

Columns and labels:
[1] = in vivo; cited from earlier work
mouse renin = assay: renin inhibitory potency against mouse renin; type: biochemical; conditions: compared with human renin
dog renin = target: T1, dog renin (Canis lupus familiaris, UniProt Q6DYE7); assay: renin inhibitory potency against dog renin; type: biochemical; conditions: compared with human renin
T1 sequence (Q6DYE7 66-403): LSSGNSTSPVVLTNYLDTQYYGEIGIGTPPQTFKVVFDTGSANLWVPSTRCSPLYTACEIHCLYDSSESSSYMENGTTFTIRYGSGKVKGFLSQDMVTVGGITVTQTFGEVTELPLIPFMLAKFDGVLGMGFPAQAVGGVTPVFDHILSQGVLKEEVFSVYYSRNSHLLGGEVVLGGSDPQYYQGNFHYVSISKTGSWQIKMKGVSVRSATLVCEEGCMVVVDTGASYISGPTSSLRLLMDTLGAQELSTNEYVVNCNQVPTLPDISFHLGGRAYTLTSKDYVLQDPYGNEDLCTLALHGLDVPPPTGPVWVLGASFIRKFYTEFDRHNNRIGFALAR

rat renin = target: T2, rat renin (Rattus norvegicus, UniProt P08424); assay: renin inhibitory potency against rat renin; type: biochemical; conditions: loss of potency against rat renin
T2 sequence (P08424 65-402): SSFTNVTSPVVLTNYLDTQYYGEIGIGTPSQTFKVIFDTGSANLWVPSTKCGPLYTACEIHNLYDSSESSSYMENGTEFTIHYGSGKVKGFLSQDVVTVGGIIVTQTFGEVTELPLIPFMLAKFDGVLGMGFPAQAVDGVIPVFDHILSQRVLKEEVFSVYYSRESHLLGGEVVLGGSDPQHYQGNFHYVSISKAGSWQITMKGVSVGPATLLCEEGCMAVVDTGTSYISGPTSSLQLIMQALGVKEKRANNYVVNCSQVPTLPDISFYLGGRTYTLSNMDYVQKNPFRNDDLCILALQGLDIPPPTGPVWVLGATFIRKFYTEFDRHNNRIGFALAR

Row | SMILES | effect on weight loss [1] | potency against mouse renin (mouse renin) | potency against dog renin (dog renin) | weaker as a rat renin inhibitor (rat renin)
1 | NS(=O)(=O)Cc1noc2ccccc12 [Zonisamide] | lead to weight loss |  |  | 
2 | CC1(C)O[C@@H]2[C@@H](CO[C@@]3(COS(N)(=O)=O)OC(C)(C)O[C@@H]23)O1 [Topiramate] | increase weight loss |  |  | 
3 | COCCCOc1cc(C[C@@H](C[C@H](N)[C@@H](O)C[C@H](C(=O)NCC(C)(C)C(N)=O)C(C)C)C(C)C)ccc1OC [aliskiren, 2(S),4 (S),5(S),7(S)—N-(3-amino-2,2-dimethyl-3-oxopropyl)-2,7-di(1-methylethyl)-4-hydroxy-5-amino-8-[4-methoxy-3-(3-methoxy-propoxy)phenyl]-octanamide] |  | reasonable potency | reasonable potency | 1-2 orders of magnitude
